Where no end group is shown, it is not given here.
How the values were obtained:
[1] = tested on: mouse hearts subjected to IR; experiment: Hematoxylin/Eosin and Masson trichrome staining of mouse heart sections after IR; assay type: in vivo, mice; conditions: by day 7 after IR
Description: FIG. 4. Hematoxylin and Eosin staining of mouse hearts. Heart sections of mice subjected to IR and injected with NIL10 or NIL10SC and collected by days 3 (A) or 7 (B) after IR. N=10 mice/group. From left to right: 2×, 20×, 40×. *P<0.05 D3; **P<0.01D7.
FIG. 5. NIL10 reduce heart fibrosis in response to IR. A. Representative immunoblot of MMP9 from healthy (H) or necrotic (N) areas of mouse hearts after 7 days of IR and injected with NIL10 or NIL10SC. N=10 mice/group. Mean±SD. *P<0.001 NIL10 vs NIL10SC necrotic areas. B. Masson Trichrome staining of heart sections from mice injected with NIL10 or NIL10SC, after 3- or 7-days post IR (N=10 mice/group). *P<0.05 D3; **P<0.03 D7.
(§1) 20 male twelve-week-old wild type, IL10 knock-out and IL10RA knock-out mice C57/BL6 were anesthetized by inhaled 3% sevoflurane and oxygen with a flow rate of 0.4 L/min until loss of righting reflex. Then, endotracheal intubation was perform using an intubation cannula in order to carry out artificial ventilation (tidal volume: 260 μL/stroke, ventilation rate: 130 strokes per minute). The fourth left intercostal space was opened and widened using chest mice retractors. Left ventricle was exposed and LAD was occluded for 30 min close by using a 6-0 silk suture and 1 mm tube. […]
Heart morphology was visualized by Hematoxylin/Eosin staining and collagen deposition was detected by Masson's trichrome staining in mice and pigs.

IL-10R = biological target: T1, IL-10R (Mus musculus, UniProt Q61727); experiment: Confocal microscopy colocalization of nanoparticles with IL-10R in RAW 264.7 macrophages; assay type: binding; conditions: RAW 264.7 cells, rhodamine nanoparticle vs FITC anti-IL-10R
T1 construct: endogenous in cells; host or cells: RAW 264.7 macrophages
T1 sequence (Q61727 17-575): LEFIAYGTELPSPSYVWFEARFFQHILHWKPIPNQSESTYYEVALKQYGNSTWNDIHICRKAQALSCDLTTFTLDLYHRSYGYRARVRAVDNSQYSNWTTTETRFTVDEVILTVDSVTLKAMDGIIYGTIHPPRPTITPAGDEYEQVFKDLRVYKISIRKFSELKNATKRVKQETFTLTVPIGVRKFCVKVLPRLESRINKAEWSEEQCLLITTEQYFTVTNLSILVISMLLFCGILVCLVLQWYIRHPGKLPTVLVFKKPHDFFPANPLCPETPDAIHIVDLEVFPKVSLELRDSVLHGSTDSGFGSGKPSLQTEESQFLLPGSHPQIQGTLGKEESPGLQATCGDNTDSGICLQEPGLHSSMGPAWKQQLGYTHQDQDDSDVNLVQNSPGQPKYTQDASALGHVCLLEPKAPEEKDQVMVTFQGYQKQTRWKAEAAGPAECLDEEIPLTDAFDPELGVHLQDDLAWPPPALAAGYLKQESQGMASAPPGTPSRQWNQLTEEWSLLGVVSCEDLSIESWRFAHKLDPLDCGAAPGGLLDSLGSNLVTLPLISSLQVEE
Method: FIG. 1. NIL10 binds to IL-10R in RAW 264.7 cells. A. Nanoparticle composition of NIL10 and NIL10SC. B. Z-potential, longitudinal and transversal relaxivities of NIL10 and NIL10SC nanoparticles. C. Bright field and confocal microscopy sections of RAW 264.7 macrophages, detecting rhodamine (red) containing NIL10 nanoparticles. D,E Colocalization of NIL10 (D) (rhodamine, red) or NIL10SC (E) with IL-10R (FICT, green) in confocal microscopy sections of RAW 264.7 cells incubated with NIL10 and anti-IL-10R specific antibody. Merged panel show co-localization of both signals. Nuclei were stained with Hoechst. Right panel: colocalization analysis with Image J co-localization plugin software, in which white dots correspond to co-localization (N=3).
To study the specificity of nanoparticles, we first incubated NIL10 (FIG. 1A, B) in RAW 264.7 macrophages, detecting rhodamine-containing nanoparticles by confocal microscopy (FIG. 1C).

mice subjected to IR = experiment: LVEF by echocardiography in wild type mice subjected to IR; assay type: in vivo; conditions: 1 mg/kg 24 hours after IR, value NIL10 is compared against, day not given
Description: FIG. 3. NIL10 induces cardiac protection in mice subjected to IR. A. Outline of the proceedings performed. B. Representative electrocardiogram, showing ST-elevation after LAD occlusion. C. Left ventricle ejection fraction (LVEF) of wild type mouse hearts at the times indicated after IR and injected with NIL10 or NIL10SC as in A. N=10 mice/group. Results expressed as mean±SD. *P<0.03 NIL10 vs NIL10SC day 7. #P<0.05 NIL10 vs NIL10SC day 3. D. LVEF in IL-10 knockout mice. N=10 mice/group. Results expressed as mean±SD. *P<0.01 NIL10 vs NIL10SC day 7. #P<0.05 NIL10 vs NIL10SC day 3. E. LVEF in IL-10 receptor knockout mice. N=10 mice/group. Results expressed as mean±SD.
as §1, with “tube. Reperfusion was performed by ligation release. After the procedure, the chest was closed, negative pressure restored, and the skin sutured.” for “tube.”

[2] = tested on: M2 CD68+/CD206+ macrophages; experiment: Flow cytometry of M2 macrophage populations in mouse hearts after IR; assay type: in vivo, mice; conditions: cell extracts from necrotic areas of mouse hearts, 3 and 7 days of IR
Description: FIG. 7. NIL10 induces M2 macrophage polarization in the hearts of mice subjected to IR. A. Flow cytometry analysis of macrophage populations in mouse hearts after 3 and 7 days of IR. The percentage of M2 CD68+/CD206+ population were selected from the necrotic and at-risk areas of the hearts. B. Gating strategy used to identify macrophage-cell subsets in the health and infarcted mouse heart. A sequential getting strategy was first used to identify M2 population expressing specific macrophage marker CD68, followed by the identification of the population with overlapping expression patterns (CD68/CD206) (N=10 mice/group). Differences between groups were compared using one-way ANOVA. **P<0.01. ***P<0.001. ****P<0.0001.
Whole mouse hearts were mashed in complete DMEM (10% FBS, penicillin/streptomycin) through a 100-μm cell strainer. ACK Lysing Buffer was added to the single-cell suspension and spun down at 350 g for 5 minutes. The ACK was washed out with 50 mL of washing buffer (1% FBS), and cells were incubated with 1:100 anti-EMMPRIN, anti-CD68 and anti-CD206 antibodies. All flow cytometry samples were assayed in a MACSQuant Analyzer Flow Cytometer and analyzed with the Graphpad Prism software package.

pigs subjected to IR = experiment: Evans Blue/TTC staining of necrotic area in pig hearts after IR; assay type: in vivo; conditions: 1 mg/kg, after 7 days of IR, EvansBlue/TTC
Description: FIG. 6. NIL10 induces cardiac protection in pigs subjected to IR. A. Evans blue/TTC staining (see methods for details) of pig heart sections (from apex to base) after 7 days of IR, showing healthy tissue (blue), the area at risk (red) and the necrotic areas (white). B. Measurement of necrotic areas of the hearts, represented as a percentage respect to the area at risk (Mean±SD. *P<0.001 NIL10 vs NIL10SC, at day 7 post IR). C. Left ventricle ejection fraction of hearts from pigs injected with NIL10 or NIL10SC after 7 days of IR (Mean±SD. *P<0.001 NIL10 vs NIL10SC). D. Hematoxylin and Eosin staining of healthy and necrotic heart sections from pigs injected with NIL10 or NIL10SC after 7 days of IR. E. Masson Trichrome staining of the same hearts as in D. (N=10 pigs/group).
20 male Yorkshire pigs (30±4 kg) were housed 1 week preceding the surgery to avoid unease or stress associated with the new environment. Prior to the surgical intervention, animals were anesthetized with intramuscular ketamine 10 mg/kg and midazolam 0.5 mg/kg.
Anesthesia was induced by inhaled sevoflurane and maintained with continuous infusion of propofol 2 mL/kg/h, fentanyl 50 μg/kg/h, and diazepam 10 μg/kg/h. […]

[3] = tested on: inducible nitric oxide synthase (iNOS); experiment: Immunoblot of iNOS in LPS-stimulated RAW 264.7 macrophages; assay type: cell-based; conditions: NIL10 plus STATTIC
Method: (§2) A. Confocal microscopy detection of NF-κB (p65) in RAW 264.7 cells stimulated with 500 μM LPS or in combination with NIL10. Nuclei were stained with DAPI. […] (N=3, results expressed as Mean±SD. *P<0.05 LPS/NIL10 vs LPS/NIL10SC). […] Confocal microscopy detection as in A, in which STATTIC, a pharmacological inhibitor of STAT3 was incubated. Arrows point nuclear or cytoplasmic localization of p65. Lower panels: immunoblot detection of iNOS in cells as in C. (N=3, results expressed as Mean±SD. *P<0.03 LPS vs LPS/NIL10 **P<0.05 LPS/STATTIC vs LPS/NIL10SC/STATTIC. ***P<0.001 NIL10/STATIC vs LPS/NIL10/STATIC).
(§3) The expression of the readout inducible nitric oxide synthase (iNOS) by pro-inflammatory signals was also assayed.

NF-κB = NF-κB (p65) nuclear translocation in LPS-stimulated RAW 264.7 macrophages, confocal microscopy; assay type: cell-based; conditions: RAW 264.7 cells, NIL10, co-incubated with 5 μM STATTIC
Method: as §2, §3

Molecule	extension of fibrosis (Masson Trichrome) [1]	Colocalization with the IL-10R (IL-10R)	LVEF (comparator value) (mice subjected to IR)	presence of M2-resolving macrophages [2]	necrotic area (pigs subjected to IR)	NIL10 inhibition of iNOS expression in the presence of STATTIC [3]	NIL10-induced cytoplasmic localization of NF-κB (NF-κB)
NIL10SC: nanoparticle conjugated with the same peptide in a scrambled orientation (CANYRMITKM); control, does not bind IL10R (also: conjugated to nanoparticle (site not given here))	fibrotic lesions were widespread	no binding	41.5%±4.33	takes 7 days to detect a similar effect	55±7.34 percentage respect to the area		
O=[N+]([O-])c1ccc2c(c1)S(=O)(=O)C=C2 [STATTIC]						reversed	prevented

From patent US20260115314A1, “PREVENTION AND/OR TREATMENT OF CARDIAC DAMAGE” (priority 2022, published 2026)
